# Patent US4992570A, “UCN-1028A and UCN-1028C and process for the production thereof” (Kyowa Hakko Kogyo Co., Ltd., priority 1987, dated 1991)
# Like-named read-outs stand apart in the source and are kept apart here.
# What was measured:
# Protein Kinase A = molecular target: T1, Protein Kinase A (Bos taurus, UniProt P00517); test: Protein kinase A inhibitory activity (method of Kuo et al.); assay type: biochemical, calf
# T1 construct: partially purified from calf heart; from tissue; host or cells: calf heart (crude enzyme, partially purified by the method of Kuo et al.)
# Method: Protein kinase A inhibitory activity was measured according to the method of Kuo, et al. [Biochemistry, 64, […].
# That is, 10 μl of a test solution was added to 250 μl of a solution containing 5 μmoles of Tris-hydrochloride buffer (pH 6.8), 2.5 μmoles of magnesium acetate, 100 μg of Histone Type IIS (manufactured by Sigma Co., Ltd.), 0.25 nmoles of C-AMP and 200 μg of crude enzyme (partially purified from calf heart according to the method of Kuo, et al.). Subsequent procedures were conducted in a manner similar to the case of measuring protein kinase C inhibitory activity described above to determine IC^50.
# MCF 7 cells = test: Anti-tumor activity: growth inhibition of MCF 7 cells (Neutral Red); assay type: cell-based; details: Homo sapiens
# Method: (§1) MCF 7 cells (4.5×10^4 cells/ml) prepared in a medium comprising RPMI 1640 medium (manufactured by Gibco Co., Ltd.), 10% fetal calf serum, 10 μg/ml insulin and 10^-8 M estradiol (hereinafter referred to as medium A) were put into wells of a 96 well microtiter plate in the amount of 0.1 m(per each well. After culturing at 37° C for 20 hours in a carbon dioxide gas incubator, each test solution appropriately diluted with medium A (0.05 ml) was added thereto. Then, culturing was carried out at 37° C. for an hour in the carbon dioxide gas incubator, and the culture supernatant was removed. After the residue was washed once with […] (composition: 8 g/l NaCl, 0.2 g/l KCl, 1.5 g/l Na2 HPO4 and 0.2 g/l KH2 PO4), 0.1 ml of fresh medium A was added thereto, followed by culturing at 37° C. for 72 hours in the carbon dioxide gas incubator. Then, the culture supernatant was removed and 0.1 ml of a medium comprising medium A and 0.02% Neutral Red was added to the residue, followed by culturing at 37° C. for one hour in the carbon dioxide gas incubator, thereby staining the cells. After removal of the culture supernatant, the residue was washed once with physiological saline. Then, the pigment was extracted with 0.001 N hydrochloric acid/30% ethanol and absorbency at 550 nm was measured with a microplate reader. By comparing the absorbency of intact cells with that of the cells treated with a test solution having a known concentration, a concentration of the test solution which inhibited 50% of growth of the cells (IC50) was calculated.
# HelaS3 cells = test: Anti-tumor activity: growth inhibition of HelaS3 cells (Neutral Red); assay type: cell-based; details: Homo sapiens
# Method: as §1
# HelaS3 cells (3×10^4 cells/ml) prepared in a medium comprising MEM medium (manufactured by Nissui Pharmaceutical Co., Ltd.) and 2 mM glutamine were put into wells of a 96 well microtiter plate in the amount of 0.1 ml per each well. In a manner similar to the case of MCF 7 cells described above, IC^50 was calculated.
# Protein Kinase C = test: Protein kinase C inhibitory activity (method of Kikkawa et al.); assay type: biochemical, rat; details: for IC50 Protein Kinase C: crude enzyme partially purified from rat brain, [γ-32P]ATP, Histone Type IIS, 30° C., 3 minutes; for selective inhibitory activity on protein kinase C, as compared with Phleichrome: statement on Table 1 (protein kinase C vs protein kinase A)
# Method: Protein kinase C inhibitory activity was measured by the method of Kikkawa, et al. [Journal of Biological Chemistry, 257, 13341 (1982)].
# That is, 10 μl of a test solution containing UCN-1028A, UCN-1028C or Phleichrome was added to 250 μl of a solution containing 2.5 μmoles of magnesium acetate, 50 μg of Histone Type IIS (manufactured by Sigma Co., Ltd.), 20 μg of phosphatidyl serine, 0.8 μg of diolein, 25 nmoles of CaCl2, 5 μg of crude enzyme (partially purified from rat brain according to the method of Kikkawa, et al.) and 5 μmoles of Tris-hydrochloride buffer (H 7.5), followed by incubation at 30° C. for 3 minutes. Then, phosphorylation was initiated by addition of 1.25 nmoles of [γ-^32 P]ATP (5 to 10×10^3 cpm/nmole), followed by incubation at 30° C. for 3 minutes. The reaction was stopped by adding 25% trichloroacetic acid (TCA), and the reaction solution was filtered through a cellulose acetate membrane (pore size of 0.45 μm) (manufactured by Toyo Filter Paper Co., Ltd.). After the membrane was washed four times with 5% TCA, radioactivity remaining on the membrane was measured. As a control, the same procedure as above was repeated without addition of the test solution and radioactivity was likewise measured. A concentration of the test solution showing 50% inhibition as compared with the control was expressed as IC50.
# [1] = MCF7, 1 hour exposure, then 72 hours culture at 37° C., Neutral Red, 550 nm, read-out: IC50 MCF 7 cells
# [2] = HeLa S3, similar to MCF 7 cells, MEM medium, 2 mM glutamine, read-out: IC50 HelaS3 cells
SMILES,IC50 (Protein Kinase A) [µM],IC50 (MCF 7 cells; [1]) [mg/L],IC50 (HelaS3 cells; [2]) [mg/L],IC50 Protein Kinase C (Protein Kinase C) [mg/L],Solubility in acetone (Solubility),Solubility in alkaline water (Solubility),Solubility in chloroform (Solubility),Solubility in ethyl acetate (Solubility),Solubility in methanol (Solubility),Solubility in n-hexane (Solubility; n-hexane),Solubility in water (Solubility),"selective inhibitory activity on protein kinase C, as compared with Phleichrome (Protein Kinase C)",Solubility in DMSO (Solubility; DMSO),"IC50 (Protein Kinase A; crude enzyme partially purified from calf heart, Histone Type IIS, C-AMP, pH 6.8, read-out: IC50 Protein Kinase A) [µM]","IC50 (MCF 7 cells; MCF7, read-out: IC50 MCF 7 cells) [mg/L]","IC50 (HelaS3 cells; HeLa S3, read-out: IC50 HelaS3 cells) [mg/L]"
"COc1c(CC(C)O)c2c3c(CC(C)O)c(OC)c(=O)c4c(O)cc(OC)c(c5c(OC)cc(O)c(c1=O)c52)c43 (stereo not shown) [Phleichrome, reference compound]",59.9,0.7,0.61,5.5,–,–,–,–,–,–,–,–,–,–,–,–
COc1c(CC(C)OC(=O)c2ccccc2)c2c3c(CC(C)OC(=O)c4ccccc4)c(OC)c(=O)c4c(O)cc(OC)c(c5c(OC)cc(O)c(c1=O)c52)c43 (stereo not shown) [UCN-1028A],> 52.7,0.21,0.29,0.19,soluble,soluble,readily soluble,readily soluble,soluble,soluble,insoluble,selective inhibitory activity on protein kinase C,–,–,–,–
COc1c(CC(C)OC(=O)Oc2ccc(O)cc2)c2c3c(CC(C)OC(=O)c4ccccc4)c(OC)c(=O)c4c(O)cc(OC)c(c5c(OC)cc(O)c(c1=O)c52)c43 (stereo not shown) [UCN-1028C],–,–,–,0.07,soluble,soluble,soluble,soluble,readily soluble,–,insoluble,selective inhibitory activity on protein kinase C,readily soluble,> 50.6,0.18,0.19
